target: human mGluR7 (Homo sapiens (Human), UniProt Q14831); assay: Inositol monophosphate production assay (IP1 assay), inhibition of L-AP4 response; type: cell-based; conditions: mean IC50 from at least two independent experiments; HEK293 cells transiently transfected with mGluR7, Gqtop and EAAC1; IP1 production vs EC80 L-AP4
Description: Inositol Monophosphate Production Assay (IP1 Assay):
HEK293 cells were transiently transfected with mGluR7 by electroporation and seeded in a poly-ornithine coated 96-well plate at the density of 150 000 cells/well. To allow the monitoring of receptor activity through measurements of inositol monophosphate (IP1) production, mGluR7 was transfected with a chimeric Gq/Gi protein (Gqtop). and was also co-transfected with EAAC1, a glutamate transporter, to avoid influence of extracellular glutamate. Cells were cultured in Dulbecco's Modified Eagle Medium (DMEM, Invitrogen, Cergy Pontoise, France), supplemented with 10% of Fetal Bovine Serum (FBS). Medium was changed by Glutamax™ (Invitrogen, Cergy Pontoise, France) to reduce extracellular glutamate concentration 3 hours before stimulation
IP1 production was determined using the IP-One HTRF kit (CisBio Bioassays), a competitive immunoassay using cryptate-labeled anti-IP1 antibody and d2-labeled IP, according to the manufacturer's recommendations. All points were realized in triplicate.
Data were analyzed with Prism 6 software (GraphPadSoftware, San Diego, Calif.). Typically, in each experiment, a four-parameter concentration-response curve equation was used to fit data and potency (IC50) is estimated as logarithms (log IC50). Data were calculated as % of the control mGluR7 agonist L-AP4 response, defined as the response that is generated upon addition of an EC80-equivalent concentration of L-AP4.
The Table 2 below represents the mean IC50 obtained from at least two independent experiments.

Sequence of human mGluR7 (Q14831 35-915): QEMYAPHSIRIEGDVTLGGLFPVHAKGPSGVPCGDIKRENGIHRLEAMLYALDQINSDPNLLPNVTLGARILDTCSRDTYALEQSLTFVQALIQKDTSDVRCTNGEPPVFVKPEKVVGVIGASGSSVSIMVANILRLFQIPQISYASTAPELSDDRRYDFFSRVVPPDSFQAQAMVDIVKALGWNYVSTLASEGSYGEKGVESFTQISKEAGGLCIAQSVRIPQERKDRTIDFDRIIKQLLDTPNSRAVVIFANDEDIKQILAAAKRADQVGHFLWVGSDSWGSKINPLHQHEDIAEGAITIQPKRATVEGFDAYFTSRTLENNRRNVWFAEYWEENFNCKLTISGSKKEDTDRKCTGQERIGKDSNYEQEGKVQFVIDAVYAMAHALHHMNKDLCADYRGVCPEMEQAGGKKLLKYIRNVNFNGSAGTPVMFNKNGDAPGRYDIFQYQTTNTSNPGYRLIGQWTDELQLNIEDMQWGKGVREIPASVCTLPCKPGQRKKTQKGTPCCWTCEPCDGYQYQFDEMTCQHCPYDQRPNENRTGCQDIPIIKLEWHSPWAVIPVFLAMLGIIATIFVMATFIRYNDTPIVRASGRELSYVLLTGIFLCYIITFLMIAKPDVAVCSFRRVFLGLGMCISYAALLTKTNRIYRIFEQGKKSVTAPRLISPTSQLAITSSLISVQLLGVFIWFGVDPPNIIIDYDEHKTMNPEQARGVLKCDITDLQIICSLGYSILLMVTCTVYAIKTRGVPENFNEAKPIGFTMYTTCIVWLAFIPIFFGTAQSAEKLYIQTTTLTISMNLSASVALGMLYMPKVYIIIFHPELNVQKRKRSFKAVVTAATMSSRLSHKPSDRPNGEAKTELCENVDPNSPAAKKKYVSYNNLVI

`Cc1ccc(C2CCc3c(cnn(-c4cscn4)c3=O)C2)c(C)c1` (stereo not drawn) [Example 33, 6-(2,4-dimethylphenyl)-2-(thiazol-4-yl)-5,6,7,8-tetrahydrophthalazin-1(2H)-one] and `Cc1ccc(C2CCc3c(cnn(-c4ccc(O)cn4)c3=O)C2)c(C)c1` (stereo not drawn) [Example 25, 6-(2,4-dimethylphenyl)-2-(5-hydroxypyridin-2-yl)-5,6,7,8-tetrahydrophthalazin-1(2H)-one] cannot be ordered by IC50: under 500 nM for the first, under 500 nM for the second.

First: Cc1c(OC2CC2)cccc1C1CCc2c(cnn(-c3ncccn3)c2=O)C1 (single isomer, unassigned; (+)) [Example 129, (+)-6-(3-cyclopropoxy-2-methylphenyl)-2-(pyrimidin-2-yl)-5,6,7,8-tetrahydrophthalazin-1(2H)-one]
Second: Cc1c(OC2CC2)cccc1C1CCc2c(cnn(-c3ncc(Br)cn3)c2=O)C1 (stereo not drawn) [Example 126, 2-(5-bromopyrimidin-2-yl)-6-(3-cyclopropoxy-2-methylphenyl)-5,6,7,8-tetrahydrophthalazin-1(2H)-one]
The IC50 of the first is higher: 500 to 1000 nM for the first, under 500 nM for the second. The second is the more potent here.

Compared with `COc1cnc(-n2ncc3c(c2=O)CCC(c2cc(OC)ccc2C)C3)nc1` (stereo not drawn) [Example 48, 6-(5-methoxy-2-methylphenyl)-2-(5-methoxypyrimidin-2-yl)-5,6,7,8-tetrahydrophthalazin-1(2H)-one], `COCCOc1cnc(-n2ncc3c(c2=O)CCC(c2cccc(OC)c2C)C3)nc1` (stereo not drawn) [Example 118, 6-(3-methoxy-2-methylphenyl)-2-(5-(2-methoxyethoxy)pyrimidin-2-yl)-5,6,7,8-tetrahydrophthalazin-1(2H)-one] is lower in IC50: 500 to 1000 nM for the first, under 500 nM for the second. The second is the more potent here.

`Cc1ccc(C2CCc3c(cnn(-c4ccc(Cl)cn4)c3=O)C2)c(C)c1` (stereo not drawn) [Example 6, 6-(2,4-dimethylphenyl)-2-(5-chlororopyridin-2-yl)-5,6,7,8-tetrahydro-phthalazin-1(2H)-one] and `COc1ccc(-n2ncc3c(c2=O)CCC(c2ccc(C)cc2C)C3)nc1` (stereo not drawn) [Example 14, 6-(2,4-dimethylphenyl)-2-(5-methoxypyridin-2-yl)-5,6,7,8-tetrahydrophthalazin-1(2H)-one] cannot be ordered by IC50: under 500 nM for the first, under 500 nM for the second.

`Cc1ccc(C2CCc3c(ncn(-c4ccccn4)c3=O)C2)c(C)c1` (stereo not drawn) [Example 122, 7-(2,4-dimethylphenyl)-3-(pyridin-2-yl)-5,6,7,8-tetrahydroquinazolin-4(3H)-one] and `Cc1ccc(C2CCc3c(cnn(-c4cc(O)ccn4)c3=O)C2)c(C)c1` (stereo not drawn) [Example 26, 6-(2,4-dimethylphenyl)-2-(4-hydroxypyridin-2-yl)-5,6,7,8-tetrahydrophthalazin-1(2H)-one] cannot be ordered by IC50: under 500 nM for the first, under 500 nM for the second.

`Cc1ccc(C2CCc3c(cnn(-c4ncc(N5CCC5)cn4)c3=O)C2)c(C)c1` (stereo not drawn) [Example 116, 2-(5-(azetidin-1-yl)pyrimidin-2-yl)-6-(2,4-dimethylphenyl)-5,6,7,8-tetrahydrophthalazin-1(2H)-one] and `Cc1ccc(C2CCc3c(cnn(-c4ncc(F)cn4)c3=O)C2)c(C)c1` (stereo not drawn) [Example 54, 6-(2,4-dimethylphenyl)-2-(5-fluoropyrimidin-2-yl)-5,6,7,8-tetrahydrophthalazin-1(2H)-one] cannot be ordered by IC50: under 500 nM for the first, under 500 nM for the second.

`O=c1c2c(cnn1-c1ncccn1)CC(c1cccc(OC3CC3)c1)CC2` (stereo not drawn) [Example 85, 6-(3-cyclopropoxyphenyl)-2-(pyrimidin-2-yl)-5,6,7,8-tetrahydrophthalazin-1(2H)-one] and `Cc1c(OC2CC2)cccc1C1CCc2c(cnn(-c3ncccn3)c2=O)C1` (single isomer, unassigned; (-)) [Example 128, (−)-6-(3-cyclopropoxy-2-methylphenyl)-2-(pyrimidin-2-yl)-5,6,7,8-tetrahydrophthalazin-1(2H)-one] cannot be ordered by IC50: under 500 nM for the first, under 500 nM for the second.

First: Cc1ccc(C2CCc3c(cnn(-c4ncccn4)c3=O)C2)c(Cl)c1 (stereo not drawn) [Example 95, 6-(2-chloro-4-methylphenyl)-2-(pyrimidin-2-yl)-5,6,7,8-tetrahydrophthalazin-1(2H)-one]
Second: Cc1ccc(C)c(C2CCc3c(cnn(-c4ncccn4)c3=O)C2)c1 (stereo not drawn) [Example 81, 6-(2,5-dimethylphenyl)-2-(pyrimidin-2-yl)-5,6,7,8-tetrahydrophthalazin-1(2H)-one]
The IC50 of the first is lower: under 500 nM for the first, 500 to 1000 nM for the second. The first is the more potent here.

`COc1cccc(C2CCc3c(cnn(-c4ccc(C5CC5)cn4)c3=O)C2)c1C` (stereo not drawn) [Example 110, 2-(5-cyclopropylpyridin-2-yl)-6-(3-methoxy-2-methylphenyl)-5,6,7,8-tetrahydrophthalazin-1(2H)-one] and `Cc1ccc(C2CCc3c(cnn(-c4ccc(C5CC5)cn4)c3=O)C2)c(C)c1` (stereo not drawn) [Example 108, 2-(5-cyclopropylpyridin-2-yl)-6-(2,4-dimethylphenyl)-5,6,7,8-tetrahydrophthalazin-1(2H)-one] cannot be ordered by IC50: under 500 nM for the first, under 500 nM for the second.

`Cc1ccc(C2CCc3c(cnn(-c4cccc(C)n4)c3=O)C2)c(C)c1` (stereo not drawn) [Example 17, 6-(2,4-dimethylphenyl)-2-(6-methylpyridin-2-yl)-5,6,7,8-tetrahydrophthalazin-1(2H)-one] and `Cc1ccc(C2CCc3c(cnn(-c4ncccc4F)c3=O)C2)c(C)c1` (stereo not drawn) [Example 12, 6-(2,4-dimethylphenyl)-2-(3-fluoropyridin-2-yl)-5,6,7,8-tetrahydrophthalazin-1(2H)-one] cannot be ordered by IC50: under 500 nM for the first, under 500 nM for the second.

First: Cc1ccc(C2CCc3c(cnn(-c4nccs4)c3=O)C2)c(C)c1 (stereo not drawn) [Example 32, 6-(2,4-dimethylphenyl)-2-(thiazol-2-yl)-5,6,7,8-tetrahydrophthalazin-1(2H)-one]
Second: Cc1ccc(C2CCc3c(cnn(-c4cccnc4)c3=O)C2)c(C)c1 (stereo not drawn) [Example 28, 6-(2,4-dimethylphenyl)-2-(pyridin-3-yl)-5,6,7,8-tetrahydrophthalazin-1(2H)-one]
The IC50 of the first is higher: 500 to 1000 nM for the first, under 500 nM for the second.

`CN1CCc2c(C3CCc4c(cnn(-c5ccccn5)c4=O)C3)cccc21` (stereo not drawn) [Example 69, 6-(1-methylindolin-4-yl)-2-(pyridin-2-yl)-5,6,7,8-tetrahydrophthalazin-1(2H)-one] and `CN1CCc2c(C3CCc4c(cnn(-c5ncccn5)c4=O)C3)cccc21` (stereo not drawn) [Example 78, 6-(1-methylindolin-4-yl)-2-(pyrimidin-2-yl)-5,6,7,8-tetrahydrophthalazin-1(2H)-one] cannot be ordered by IC50: under 500 nM for the first, under 500 nM for the second.

First: COCc1cccc(C2CCc3c(cnn(-c4ncccn4)c3=O)C2)c1 (stereo not drawn) [Example 83, 6-(3-(methoxymethyl)phenyl)-2-(pyrimidin-2-yl)-5,6,7,8-tetrahydrophthalazin-1(2H)-one]
Second: COCCCOc1cccc(C2CCc3c(cnn(-c4ncccn4)c3=O)C2)c1C (stereo not drawn) [Example 100, 6-(3-(3-methoxypropoxy)-2-methylphenyl)-2-(pyrimidin-2-yl)-5,6,7,8-tetrahydrophthalazin-1(2H)-one]
The IC50 of the first is higher: 500 to 1000 nM for the first, under 500 nM for the second. The second is the more potent here.

`COc1ccnc(-n2ncc3c(c2=O)CCC(c2ccc(C)cc2C)C3)n1` (stereo not drawn) [Example 35, 6-(2,4-dimethylphenyl)-2-(4-methoxypyrimidin-2-yl)-5,6,7,8-tetrahydrophthalazin-1(2H)-one] and `COc1cccnc1-n1ncc2c(c1=O)CCC(c1ccc(C)cc1C)C2` (stereo not drawn) [Example 16, 6-(2,4-dimethylphenyl)-2-(3-methoxypyridin-2-yl)-5,6,7,8-tetrahydrophthalazin-1(2H)-one] cannot be ordered by IC50: under 500 nM for the first, under 500 nM for the second.

First: Cc1ccc(C2CCc3c(cnn(-c4ncccc4C#N)c3=O)C2)c(C)c1 (stereo not drawn) [Example 24, 2-(6-(2,4-dimethylphenyl)-1-oxo-5,6,7,8-tetrahydrophthalazin-2(1H)-yl)nicotinonitrile]
Second: CC(=O)Nc1cnc(-n2ncc3c(c2=O)CCC(c2ccc(C)cc2C)C3)nc1 (single isomer, unassigned; (-)) [Example 136, (−)-N-(2-(6-(2,4-dimethylphenyl)-1-oxo-5,6,7,8-tetrahydrophthalazin-2(1H)-yl)pyrimidin-5-yl)acetamide]
The IC50 of the first is lower: under 500 nM for the first, 1000 to 30000 nM for the second. The first is the more potent here.

First: O=c1c2c(cnn1-c1ccccn1)CC(c1cccc(C3CC3)c1)CC2 (stereo not drawn) [Example 63, 6-(3-cyclopropylphenyl)-2-(pyridin-2-yl)-5,6,7,8-tetrahydrophthalazin-1(2H)-one]
Second: COc1cccc(C2CCc3c(cnn(-c4ccccn4)c3=O)C2)c1C (stereo not drawn) [Example 60, 6-(3-methoxy-2-methylphenyl)-2-(pyridin-2-yl)-5,6,7,8-tetrahydrophthalazin-1(2H)-one]
The IC50 of the first is higher: 500 to 1000 nM for the first, under 500 nM for the second. The second is the more potent here.

`COc1ccc(C)c(C2CCc3c(cnn(-c4ccccn4)c3=O)C2)c1` (stereo not drawn) [Example 61, 6-(5-methoxy-2-methylphenyl)-2-(pyridin-2-yl)-5,6,7,8-tetrahydrophthalazin-1(2H)-one] and `COc1ccc(F)c(C2CCc3c(cnn(-c4ncccn4)c3=O)C2)c1F` (stereo not drawn) [Example 90, 6-(2,6-difluoro-3-methoxyphenyl)-2-(pyrimidin-2-yl)-5,6,7,8-tetrahydrophthalazin-1(2H)-one] cannot be ordered by IC50: under 500 nM for the first, under 500 nM for the second.

First: O=c1c2c(cnn1-c1ncccn1)CC(c1cccc3c1ccn3C1CC1)CC2 (single isomer, unassigned; (+)) [Example 138, (+)-6-(1-cyclopropyl-1H-indol-4-yl)-2-(pyrimidin-2-yl)-5,6,7,8-tetrahydrophthalazin-1(2H)-one]
Second: Cc1cc(C)c(C2CCc3c(cnn(-c4ncccn4)c3=O)C2)c(C)c1 (stereo not drawn) [Example 89, 6-mesityl-2-(pyrimidin-2-yl)-5,6,7,8-tetrahydrophthalazin-1(2H)-one]
The IC50 of the first is higher: 500 to 1000 nM for the first, under 500 nM for the second. The second is the more potent here.

From US11414395B2, “Heterocyclic compounds as modulators of mGluR7” (PRAGMA Therapeutics, priority 2017, dated 2022)
